Source: publication PMC9195458, “Identification of antimalarial targets of chloroquine by a combined deconvolution strategy of ABPP and MS-CETSA” (Military Medical Research, 2022)

Assays:
plasmepsin IV = biological target: T1, plasmepsin IV (Plasmodium falciparum, UniProt Q8IM16); test: ITDR MS-CETSA thermal shift; assay type: biochemical; settings: parasite lysate, CQ 0-300 µmol/L; heated at 37, 52 or 61 °C
T1 construct: gene PMIV; native protein in soluble parasite lysate

PfPyrK [1] = biological target: T2, PfPyrK (Plasmodium falciparum, UniProt C6KTA4); test: enzyme activity inhibition, dose-response; assay type: biochemical; settings: recombinant protein
T2 construct: gene PF3D7_0626800
T2 sequence (C6KTA4 1-511): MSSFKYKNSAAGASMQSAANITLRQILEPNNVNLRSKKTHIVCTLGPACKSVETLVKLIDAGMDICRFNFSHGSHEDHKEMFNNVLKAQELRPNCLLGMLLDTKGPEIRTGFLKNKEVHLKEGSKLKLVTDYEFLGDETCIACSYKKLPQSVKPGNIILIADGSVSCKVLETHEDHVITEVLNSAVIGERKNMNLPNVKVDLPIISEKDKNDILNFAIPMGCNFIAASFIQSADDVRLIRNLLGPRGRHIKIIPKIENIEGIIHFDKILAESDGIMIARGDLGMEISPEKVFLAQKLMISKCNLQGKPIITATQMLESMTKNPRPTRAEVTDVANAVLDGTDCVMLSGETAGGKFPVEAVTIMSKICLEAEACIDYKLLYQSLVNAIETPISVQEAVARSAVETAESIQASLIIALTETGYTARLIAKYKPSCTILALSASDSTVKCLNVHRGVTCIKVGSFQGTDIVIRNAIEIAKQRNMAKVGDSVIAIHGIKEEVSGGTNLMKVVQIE

falcilysin = biological target: T3, falcilysin (Plasmodium falciparum, UniProt Q76NL8); test: ITDR MS-CETSA thermal shift; assay type: biochemical; settings: parasite lysate, CQ 0-300 µmol/L; heated at 37, 52 or 61 °C
T3 construct: gene FLN; native protein in soluble parasite lysate
T3 sequence (Q76NL8 1-1193): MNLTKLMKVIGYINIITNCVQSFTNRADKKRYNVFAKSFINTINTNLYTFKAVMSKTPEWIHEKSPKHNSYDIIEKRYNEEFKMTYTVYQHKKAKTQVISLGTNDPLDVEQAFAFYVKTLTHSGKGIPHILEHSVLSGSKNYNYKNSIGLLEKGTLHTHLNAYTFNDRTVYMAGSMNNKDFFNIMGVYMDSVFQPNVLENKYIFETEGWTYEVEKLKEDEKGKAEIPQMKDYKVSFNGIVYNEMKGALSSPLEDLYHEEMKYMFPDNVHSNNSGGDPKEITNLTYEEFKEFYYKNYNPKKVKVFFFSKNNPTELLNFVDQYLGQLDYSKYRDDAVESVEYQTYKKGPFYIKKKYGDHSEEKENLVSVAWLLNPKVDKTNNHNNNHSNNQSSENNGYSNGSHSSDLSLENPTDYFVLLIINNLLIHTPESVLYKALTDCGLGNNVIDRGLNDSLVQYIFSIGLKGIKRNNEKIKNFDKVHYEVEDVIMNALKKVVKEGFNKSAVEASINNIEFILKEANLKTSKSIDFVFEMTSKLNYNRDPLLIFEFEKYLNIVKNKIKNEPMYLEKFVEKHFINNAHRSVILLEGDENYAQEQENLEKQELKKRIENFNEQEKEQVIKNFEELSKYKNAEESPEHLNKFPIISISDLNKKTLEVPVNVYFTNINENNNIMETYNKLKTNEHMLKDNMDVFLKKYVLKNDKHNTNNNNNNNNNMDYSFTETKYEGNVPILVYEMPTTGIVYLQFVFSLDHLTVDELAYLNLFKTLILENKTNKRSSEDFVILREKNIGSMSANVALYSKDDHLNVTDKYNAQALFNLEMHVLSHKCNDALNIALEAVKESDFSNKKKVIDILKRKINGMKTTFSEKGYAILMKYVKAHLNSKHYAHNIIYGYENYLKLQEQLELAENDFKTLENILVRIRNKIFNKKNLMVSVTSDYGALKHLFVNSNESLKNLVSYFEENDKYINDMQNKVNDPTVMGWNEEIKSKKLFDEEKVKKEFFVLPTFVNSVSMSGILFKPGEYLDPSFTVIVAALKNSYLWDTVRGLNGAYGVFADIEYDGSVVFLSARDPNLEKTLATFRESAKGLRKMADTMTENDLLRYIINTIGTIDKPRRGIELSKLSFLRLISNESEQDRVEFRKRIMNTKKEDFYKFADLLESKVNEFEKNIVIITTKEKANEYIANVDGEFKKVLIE

PfPGK [2] = biological target: T4, PfPGK (Plasmodium falciparum, UniProt P27362); test: enzyme activity inhibition, dose-response; assay type: biochemical; settings: recombinant protein
T4 construct: gene PGK
T4 sequence (P27362 1-416): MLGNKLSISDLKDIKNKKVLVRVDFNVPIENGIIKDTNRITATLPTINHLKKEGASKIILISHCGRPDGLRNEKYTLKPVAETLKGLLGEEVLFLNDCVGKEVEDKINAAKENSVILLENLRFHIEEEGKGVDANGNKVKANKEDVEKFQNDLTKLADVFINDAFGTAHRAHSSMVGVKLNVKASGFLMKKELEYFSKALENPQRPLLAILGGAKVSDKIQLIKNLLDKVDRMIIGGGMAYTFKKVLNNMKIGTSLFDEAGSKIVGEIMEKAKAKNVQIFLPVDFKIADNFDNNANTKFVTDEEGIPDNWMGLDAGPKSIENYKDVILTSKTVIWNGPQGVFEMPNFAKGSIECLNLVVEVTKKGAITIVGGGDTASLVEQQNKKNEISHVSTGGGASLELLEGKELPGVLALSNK

PfPyrK [3] = biological target: T2, PfPyrK; test: SPR (BIAcore); assay type: binding; settings: read-out: KCQ-PfPyrK
PfTPI [4] = biological target: T5, PfTPI (Plasmodium falciparum, UniProt Q7KQM0); test: enzyme activity inhibition, dose-response; assay type: biochemical; settings: recombinant protein
T5 construct: gene TPI
T5 sequence (Q7KQM0 whole entry): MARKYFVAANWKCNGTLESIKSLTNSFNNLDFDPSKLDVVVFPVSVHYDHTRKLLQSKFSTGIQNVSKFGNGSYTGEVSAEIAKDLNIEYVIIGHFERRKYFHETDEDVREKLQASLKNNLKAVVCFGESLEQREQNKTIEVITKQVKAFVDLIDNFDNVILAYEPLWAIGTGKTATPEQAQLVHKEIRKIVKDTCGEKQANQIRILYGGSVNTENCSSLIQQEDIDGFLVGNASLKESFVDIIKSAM

PfOAT [5] = biological target: T6, PfOAT (Plasmodium falciparum, UniProt Q6LFH8); test: SPR (BIAcore); assay type: binding; settings: read-out: KCQ-PfOAT
T6 construct: gene OAT
T6 sequence (Q6LFH8 1-414): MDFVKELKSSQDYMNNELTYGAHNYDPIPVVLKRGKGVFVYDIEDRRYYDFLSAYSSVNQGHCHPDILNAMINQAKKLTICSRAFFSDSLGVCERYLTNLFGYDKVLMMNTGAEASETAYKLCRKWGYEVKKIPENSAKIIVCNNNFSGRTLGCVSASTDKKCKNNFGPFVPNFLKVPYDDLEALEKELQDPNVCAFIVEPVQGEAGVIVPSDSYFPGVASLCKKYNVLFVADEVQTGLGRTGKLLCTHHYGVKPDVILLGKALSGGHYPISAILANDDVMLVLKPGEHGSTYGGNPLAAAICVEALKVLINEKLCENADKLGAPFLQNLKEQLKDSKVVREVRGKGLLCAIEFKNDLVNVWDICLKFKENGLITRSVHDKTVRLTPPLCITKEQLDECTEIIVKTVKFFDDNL

PfPGK [6] = biological target: T4, PfPGK; test: SPR (BIAcore); assay type: binding; settings: read-out: KCQ-PfPGK
PfLDH [7] = biological target: T7, PfLDH (Plasmodium falciparum, UniProt Q76NM3); test: enzyme activity inhibition, dose-response; assay type: biochemical; settings: recombinant protein
T7 construct: gene PF3D7_1324900
T7 sequence (Q76NM3 1-316): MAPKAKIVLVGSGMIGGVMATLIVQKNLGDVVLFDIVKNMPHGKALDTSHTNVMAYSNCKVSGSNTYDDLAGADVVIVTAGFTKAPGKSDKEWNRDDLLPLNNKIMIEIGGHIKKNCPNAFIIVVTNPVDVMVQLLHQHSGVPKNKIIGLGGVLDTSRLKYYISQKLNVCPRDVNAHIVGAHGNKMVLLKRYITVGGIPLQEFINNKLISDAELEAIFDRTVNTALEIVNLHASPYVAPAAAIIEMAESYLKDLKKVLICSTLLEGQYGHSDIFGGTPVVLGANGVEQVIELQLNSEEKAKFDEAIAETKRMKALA

PfOAT [8] = biological target: T6, PfOAT; test: enzyme activity inhibition, dose-response; assay type: biochemical; settings: recombinant protein
plasmepsin II = biological target: T8, plasmepsin II (Plasmodium falciparum, UniProt Q8I6V3); test: ITDR MS-CETSA thermal shift; assay type: biochemical; settings: parasite lysate, CQ 0-300 µmol/L; heated at 37, 52 or 61 °C
T8 construct: gene PMII; native protein in soluble parasite lysate
T8 sequence (Q8I6V3 125-453): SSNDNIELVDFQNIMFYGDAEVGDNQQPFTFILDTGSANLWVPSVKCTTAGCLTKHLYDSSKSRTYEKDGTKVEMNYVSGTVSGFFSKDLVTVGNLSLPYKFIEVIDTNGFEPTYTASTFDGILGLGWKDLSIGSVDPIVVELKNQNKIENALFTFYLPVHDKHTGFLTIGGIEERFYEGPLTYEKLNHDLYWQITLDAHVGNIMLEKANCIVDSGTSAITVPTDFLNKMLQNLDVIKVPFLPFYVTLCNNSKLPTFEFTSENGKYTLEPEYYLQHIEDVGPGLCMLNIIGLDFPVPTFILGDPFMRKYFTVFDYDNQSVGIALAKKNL

PfLDH [9] = biological target: T7, PfLDH; test: SPR (BIAcore); assay type: binding; settings: read-out: KCQ-PfLDH
PfTPI [10] = biological target: T5, PfTPI; test: SPR (BIAcore); assay type: binding; settings: read-out: KCQ-PfTPI
PfLDH [11] = biological target: T7, PfLDH; test: photo-affinity labelling, click TAMRA, in-gel fluorescence; assay type: binding; settings: covalent photo-crosslink on UV 365 nm; recombinant protein; competed by excess CQ
PfOAT [12] = biological target: T6, PfOAT; test: as above; assay type: binding; settings: covalent photo-crosslink on UV 365 nm; recombinant protein; competed by excess CQ
PfTPI [13] = biological target: T5, PfTPI; test: as above; assay type: binding; settings: covalent photo-crosslink on UV 365 nm; recombinant protein; competed by excess CQ
PfPyrK [14] = biological target: T2, PfPyrK; test: as above; assay type: binding; settings: covalent photo-crosslink on UV 365 nm; recombinant protein; competed by excess CQ
PfPGK [15] = biological target: T4, PfPGK; test: as above; assay type: binding; settings: covalent photo-crosslink on UV 365 nm; recombinant protein; competed by excess CQ

T1 sequence (Q8IM16 122-449): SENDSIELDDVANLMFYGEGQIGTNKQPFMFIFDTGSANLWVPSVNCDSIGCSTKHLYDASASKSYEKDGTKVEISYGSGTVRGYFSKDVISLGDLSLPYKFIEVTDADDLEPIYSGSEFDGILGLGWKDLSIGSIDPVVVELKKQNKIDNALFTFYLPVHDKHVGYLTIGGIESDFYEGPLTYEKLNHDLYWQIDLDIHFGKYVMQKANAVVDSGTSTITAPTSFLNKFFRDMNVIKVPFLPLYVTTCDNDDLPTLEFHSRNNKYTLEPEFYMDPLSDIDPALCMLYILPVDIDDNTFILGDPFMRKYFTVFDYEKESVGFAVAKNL

Row | SMILES | thermal shift (plasmepsin IV) | inhibition of enzymatic activity (PfPyrK [1]) | thermal shift (falcilysin) | inhibition of enzymatic activity (PfPGK [2]) | Kd (PfPyrK [3]) [µM] | inhibition of enzymatic activity (PfTPI [4]) | Kd (PfOAT [5]) [µM] | Kd (PfPGK [6]) [µM] | inhibition of enzymatic activity (PfLDH [7]) | inhibition of enzymatic activity (PfOAT [8]) | thermal shift (plasmepsin II) | Kd (PfLDH [9]) [µM] | Kd (PfTPI [10]) [µM] | photo-affinity labelling, click TAMRA, in-gel fluorescence (PfLDH [11]) | photo-affinity labelling, click TAMRA, in-gel fluorescence (PfOAT [12]) | photo-affinity labelling, click TAMRA, in-gel fluorescence (PfTPI [13]) | photo-affinity labelling, click TAMRA, in-gel fluorescence (PfPyrK [14]) | photo-affinity labelling, click TAMRA, in-gel fluorescence (PfPGK [15])
1 | CCN(CC)CCCC(C)Nc1ccnc2cc(Cl)ccc12 (stereo not drawn) [CQ] | plasmepsin II and plasmepsin IV also showed significant thermal shift | CQ inhibits the enzymatic activities of the recombinant PfLDH (a), PfOAT (b), PfPyrK (c) | falcilysin as well as other hemoglobin proteolytic enzymes | PfPGK (d) and PfTPI (e) proteins in vitro in a dose-dependent manner | 0.85 | PfPGK (d) and PfTPI (e) proteins in vitro in a dose-dependent manner | 1.91 | 1.95 | CQ inhibits the enzymatic activities of the recombinant PfLDH (a) | CQ inhibits the enzymatic activities of the recombinant PfLDH (a), PfOAT (b) | plasmepsin II and plasmepsin IV also showed significant thermal shift | 0.32 | 1.18 | – | – | – | – | –
2 | C#CCOCCC1(CCOCc2cn(CCCCC(=O)N(CC)CCCC(C)Nc3ccnc4cc(Cl)ccc34)nn2)N=N1 (stereo not drawn) [CQP] | – | – | – | – | – | – | – | – | – | – | – | – | – | CQP specifically binds to recombinant PfLDH, PfOAT, PfPyrK, PfPGK, and PfTPI proteins | CQP specifically binds to recombinant PfLDH, PfOAT, PfPyrK, PfPGK, and PfTPI proteins | CQP specifically binds to recombinant PfLDH, PfOAT, PfPyrK, PfPGK, and PfTPI proteins | CQP specifically binds to recombinant PfLDH, PfOAT, PfPyrK, PfPGK, and PfTPI proteins | CQP specifically binds to recombinant PfLDH, PfOAT, PfPyrK, PfPGK, and PfTPI proteins
